In the NIST ThermoML archive (doi:10.1021/je030132i):

Assay: xn = mol fraction of the nth substance listed
Conditions: 101.3 kPa, Liquid; for viscosity: Capillary tube (Ostwald / Ubbelohde) method; for mass density: Vibrating tube method

CC(O)CNCC(C)O (configuration not stated) [N-(2-hydroxypropyl)-2-hydroxy-1-propanamine] + O
Conditions	mass density [kg/m3]	viscosity [mPa·s]
298.15 K, x1 = 0.02	1005.22	1.645
298.15 K, x1 = 0.0498	1015.93	3.723
298.15 K, x1 = 0.0701	1021.72	6.06
298.15 K, x1 = 0.1001	1027.13	11.55
298.15 K, x1 = 0.1999	1030.9	55.69
298.15 K, x1 = 0.3006	1027.13	166.1
298.15 K, x1 = 0.3963	1022.42	338.7
298.15 K, x1 = 0.5012	1017.79	613
298.15 K, x1 = 0.5957	1014.09	861
298.15 K, x1 = 0.7034	1010.66	1142
298.15 K, x1 = 0.8029	1008.07	1326
298.15 K, x1 = 0.9016	1006.28	1478
313.15 K, x1 = 0.02	999.64	1.112
313.15 K, x1 = 0.0498	1008.66	2.218
313.15 K, x1 = 0.0701	1013.2	3.335
313.15 K, x1 = 0.1001	1017.4	5.56
313.15 K, x1 = 0.1999	1019.77	20.63
313.15 K, x1 = 0.3006	1016.15	46.9
313.15 K, x1 = 0.3963	1011.45	87.7
313.15 K, x1 = 0.5012	1006.84	139.1
313.15 K, x1 = 0.5957	1003.2	184.6
313.15 K, x1 = 0.7034	999.62	229.9
313.15 K, x1 = 0.8029	997.1	264.6
313.15 K, x1 = 0.9016	995.03	290.7
318.65 K, x1 = 0.02	997.52	0.992
318.65 K, x1 = 0.0498	1006.43	1.914
318.65 K, x1 = 0.0701	1010.34	2.776
318.65 K, x1 = 0.1001	1014	4.6
318.65 K, x1 = 0.1999	1015.54	15.21
318.65 K, x1 = 0.3006	1011.9	32.42
318.65 K, x1 = 0.3963	1007.24	58.7
318.65 K, x1 = 0.5012	1002.82	88.1
318.65 K, x1 = 0.5957	999.15	114.5
318.65 K, x1 = 0.7034	995.55	140
318.65 K, x1 = 0.8029	993.04	159.5
318.65 K, x1 = 0.9016	990.99	174.2
318.65 K, x1 = 1	988.22	186.6
323.15 K, x1 = 0.02	995.02	0.907
323.15 K, x1 = 0.0498	1003.09	1.684
323.15 K, x1 = 0.0701	1006.95	2.408
323.15 K, x1 = 0.1001	1010.46	3.78
323.15 K, x1 = 0.1999	1012.04	12.06
323.15 K, x1 = 0.3006	1008.24	24.56
323.15 K, x1 = 0.3963	1003.75	42.8
323.15 K, x1 = 0.5012	999.39	63.37
323.15 K, x1 = 0.5957	995.71	79.93
323.15 K, x1 = 0.7034	992.23	96.22
323.15 K, x1 = 0.8029	989.58	108.7
323.15 K, x1 = 0.9016	987.51	118
323.15 K, x1 = 1	984.9	125.7
333.15 K, x1 = 0.02	989.76	0.733
333.15 K, x1 = 0.0498	996.93	1.355
333.15 K, x1 = 0.0701	1000.34	1.816
333.15 K, x1 = 0.1001	1003.16	2.719
333.15 K, x1 = 0.1999	1004.03	7.5
333.15 K, x1 = 0.3006	1000.17	14.15
333.15 K, x1 = 0.3963	995.77	22.89
333.15 K, x1 = 0.5012	991.52	32.12
333.15 K, x1 = 0.5957	987.88	39.31
333.15 K, x1 = 0.7034	984.45	46.32
333.15 K, x1 = 0.8029	981.79	51.38
333.15 K, x1 = 0.9016	979.72	55.03
333.15 K, x1 = 1	977.3	57.99
343.15 K, x1 = 0.02	983.93	0.621
343.15 K, x1 = 0.0498	990.37	1.061
343.15 K, x1 = 0.0701	993.22	1.412
343.15 K, x1 = 0.1001	995.55	2.042
343.15 K, x1 = 0.1999	995.78	5.05
343.15 K, x1 = 0.3006	991.86	8.7
343.15 K, x1 = 0.3963	987.44	13.34
343.15 K, x1 = 0.5012	983.33	17.88
343.15 K, x1 = 0.5957	979.75	21.19
343.15 K, x1 = 0.7034	976.35	24.42
343.15 K, x1 = 0.8029	973.95	26.64
343.15 K, x1 = 0.9016	971.72	28.29
343.15 K, x1 = 1	969.58	29.55
